Measurements: patent US6921770B2 (priority 2000, dated 2005)

Test system: rice blast fungi
Assay type: in vivo, Pyricularia grisea

| Structure (SMILES) | Inhibiting Ratio (%) (at 250 ppm) |
| --- | --- |
| Cc1ccc(N=c2scc(CC(=O)Nc3ccc(Cl)cc3)n2C)c(C)c1.Cl [Compound 154, 2-(2,4-dimethylphenylimino)-3-methyl-4-(N-(4-chlorophenyl)carbamoylmethyl)-1,3-thiazol-4-ine hydrochloride] | 93% |
| Cl.Cn1c(CC(=O)Nc2ccc(Cl)cc2)csc1=Nc1ccc(F)c(Cl)c1 [Compound 155, 2-(3-chloro-4-fluorophenylimino)-3-methyl-4-[N-(4-chlorophenyl)carbamoylmethyl]-1,3-thiazol-4-ine hydrochloride] | 96% |
| Cl.Cn1c(CC(=O)Nc2ccc(Cl)cc2)csc1=Nc1cccc(Br)c1 [Compound 156, 2-(3-bromophenylimino)-3-methyl-4-[N-(4-chlorophenyl)carbamoylmethyl]-1,3-thiazol-4-ine hydrochloride] | 96% |
| Cl.Cn1c(CC(=O)Nc2ccc(Cl)cc2)csc1=Nc1ccc(Cl)cc1F [Compound 158, 2-(4-chloro-2-fluorophenylimino)-3-methyl-4-[N-(4-chlorophenyl)carbamoylmethyl]-1,3-thiazol-4-ine hydrochloride] | 90% |
| Cl.Cn1c(CC(=O)Nc2ccc(Cl)cc2)csc1=Nc1ccc(F)cc1F [Compound 159, 2-(2,4-difluorophenylimino)-3-methyl-4-[N-(4-chlorophenyl)carbamoylmethyl]-1,3thiazol-4-ine hydrochloride] | 92% |
| Cl.Cn1c(CC(=O)Nc2ccc(Cl)cc2)csc1=Nc1ccccc1F [Compound 160, 2-(2-fluorophenylimino)-3-methyl-4-[N-(4-chlorophenyl)carbamoylmethyl]-1,3-thiazol-4-ine hydrochloride] | 88% |
| CC(C)Oc1cc(N=c2scc(CC(=O)Nc3ccc(Cl)cc3)n2C)c(F)cc1Cl.Cl [Compound 161, 2-(4-chloro-5-isopropoxy-2-fluorophenylimino)-3-methyl-4-[N-(4-chlorophenyl)carbamoylmethyl]-1,3-thiazol-4-ine hydrochloride] | 86% |
| Cc1ccc(NC(=O)Cc2csc(=Nc3ccc(Br)cc3)n2C)cc1.Cl [Compound 162, 2-(4-bromophenylimino)-3-methyl-4-[N-(4-methylphenyl)carbamoylmethyl]-1,3-thiazol-4-ine hydrochloride] | 89% |
| Cc1ccc(NC(=O)Cc2csc(=Nc3ccccc3F)n2C)cc1.Cl [Compound 167, 2-(2-fluorophenylimino)-3-methyl-4-[N-(4-methylphenyl)carbamoylmethyl]-1,3-thiazol-4-ine hydrochloride] | 88% |
| Cc1ccc(NC(=O)Cc2csc(=Nc3cc(OC(C)C)c(Cl)cc3F)n2C)cc1.Cl [Compound 168, 2-(4-chloro-5-isopropoxy-2-fluorophenylimino)-3-methyl-4-[N-(4-methylphenyl)carbamoylmethyl-]-1,3-thiazol-4-ine hydrochloride] | 92% |
| Cl.Cn1c(CC(=O)Nc2ccc([N+](=O)[O-])cc2)csc1=Nc1ccc(OC(F)(F)F)cc1 [Compound 176, 2-(4-trifluoromethoxyphenylimino)-3-methyl-4-[N-(4-nitrophenyl)carbamoylmethyl]-4-thiazoline hydrochloride] | 96% |
| CC(C)Oc1cc(N=c2scc(CC(=O)Nc3ccc(Br)cc3)n2C)c(F)cc1Cl.Cl [Compound 185, 2-(4-chloro-5-isopropoxy-2-fluorophenylimino)-3-methyl-4-[N-(4-bromophenyl)carbamoylmethyl]-1,3-thiazol-4-ine hydrochloride] | 97% |
| Cl.Cn1c(CC(=O)Nc2ccc(OC(F)(F)F)cc2)csc1=Nc1ccc(F)cc1F [Compound 192, 2-(2,4-difluorophenylimino)-3-methyl-4-[N-(4-trifluoromethoxyphenyl)carbamoylmethyl]-1,3-thiazol-4-ine hydrochloride] | 92% |
| COc1ccc(NC(=O)Cc2csc(=Nc3ccc(C)cc3C)n2C)cc1.Cl [Compound 196, 2-(2,4-dimethylphenylimino)-3-methyl-4-[N-(4-methoxyphenyl)carbamoylmethyl]-1,3-thiazol-4-ine hydrochloride] | 92% |
| COc1ccc(NC(=O)Cc2csc(=Nc3cc(C)ccc3OC)n2C)cc1.Cl [Compound 198, 2-(2-methoxy-5-methylphenylimino)-3-methyl-4-[N-(4-methoxyphenyl)carbamoylmethyl]-1,3-thiazol-4-ine hydrochloride] | 95% |
| COc1ccc(NC(=O)Cc2csc(=Nc3ccc(Cl)cc3F)n2C)cc1.Cl [Compound 207, 2-(4-chloro-2-fluorophenylimino)-3-methyl-4-[N-(4-methoxyphenyl)carbamoylmethyl]-1,3-thiazol-4-ine hydrochloride] | 93% |
| COc1ccc(NC(=O)Cc2csc(=Nc3cc(OC(C)C)c(Cl)cc3F)n2C)cc1.Cl [Compound 208, 2-(4-chloro-5-isopropoxy-2-fluorophenylimino)-3-methyl-4-[N-(4-methoxyphenyl)carbamoylmethyl]-1,3-thiazol-4-ine hydrochloride] | 97% |
| COc1ccc(NC(=O)Cc2csc(=Nc3ccc(OC(F)(F)F)cc3)n2C)cc1.Cl [Compound 209, 2-(4-trifluoromethoxyphenylimino)-3-methyl-4-[N-(4-methoxyphenyl)carbamoylmethyl]-1,3-thiazol-4-ine hydrochloride] | 97% |
| Cl.Cn1c(CC(=O)Nc2ccc(C#N)cc2)csc1=Nc1ccc(OC(F)(F)F)cc1 [Compound 215, 2-(4-trifluoromethoxyphenylimino)-3-methyl-4-[N-(4-cyanophenyl)carbamoylmethyl]-4-thiazoline hydrochloride] | 93% |
| CCCCc1ccc(N=c2scc(CC(=O)Nc3ccc(C#N)cc3)n2C)cc1.Cl [Compound 221, 2-[4-(n-butyl)phenylimino]-3-methyl-4-[N-(4-cyanophenyl)carbamoylmethyl]-4-thiazoline hydrochloride] | 87% |
| CC(C)Oc1cc(N=c2scc(CC(=O)Nc3ccc(C#N)cc3)n2C)c(F)cc1Cl.Cl [Compound 226, 2-(4-chloro-5-isopropoxy-2-fluorophenylimino)-3-methyl-4-[N-(4-cyanophenyl)carbamoylmethyl]-4-thiazoline hydrochloride] | 92% |
| Cc1ccc(N=c2scc(CC(=O)Nc3ccc(C)c(Cl)c3)n2C)c(C)c1.Cl [Compound 227, 2-(2,4-dimethylphenylimino)-3-methyl-4-[N-(3-chloro-4-methylphenyl)carbamoylmethyl]-4-thiazoline hydrochloride] | 97% |
| Cc1ccc(NC(=O)Cc2csc(=Nc3ccc(C#N)cc3)n2C)cc1Cl.Cl [Compound 228, 2-(4-cyanophenylimino)-3-methyl-4-[N-(3-chloro-4-methylphenyl)carbamoylmethyl]-4-thiazoline hydrochloride] | 97% |
| Cc1ccc(NC(=O)Cc2csc(=Nc3ccc(Br)cc3)n2C)cc1Cl.Cl [Compound 229, 2-(4-bromophenylimino)-3-methyl-4-[N-(3-chloro-4-methylphenyl)carbamoylmethyl]-4-thiazoline hydrochloride] | 93% |
